Source: patent US6514988B1, “Condensed-ring thiophene derivatives, their production and use” (Takeda Chemical Industries, Ltd., priority 1994, dated 2003)
Where a name gives a salt, the structure may show the parent alone. Read-outs that look alike come from different tables or passages of the source. Blank lines part the entries; values can stand above or below the compound they belong to.

What was measured:
male ICR mice = conditions: 30 mg per 1 kg orally once a day during 3 days, plasma at 24 hours after administration, p<0.05
Procedure: The solution was administered oraly once a day during successive 3 days to male ICR mice (10-week old, n=12). The dosage was 30 mg per 1 kg of body weight. ICR mice administered with vehicle alone were used as control (n=15). At 24 hours after the administration, blood was collected from jugular vein under anesthesia with ether. To the blood were immediately added ethylenediamine tetracetate (EDTA) at a final concentration of 3 mg/ml and aprotinin at a final concentration of 300 KIU/ml. The mixture was centrifuged for 15 minutes at 3000×g, and the concentration of testosterone in the plasma was measured by the radio immunoassay.
The rate of testosterone suppression (%) of the test compound was determined by the formula; 100−(concentration of plasma testosterone in the test group)/(concentration of plasma testosterone in the control group)×100.

[1] = system: primary cultured cells of rat pituitary anterior lobes; experiment: Inhibition of LH/FSH secretion by primary cultured cells of rat pituitary anterior lobes; type: cell-based; conditions: 100 μl of 20 μM compound solution + 100 μl of 5 nM GnRH in 800 μl medium, 37° C. for 3 hours
Procedure: Anterior lobes of pituitary glands from 40 Wistar rats (8-week old, male) was put into a petri dish containing buffer A (0.7 mM sodium dihydrogen phosphate, 137 mM sodium chloride, 5 mM potassium chloride, 25 mM HEPES, 50 μg/ml gentamicin sulfate), which was once washed with the buffer A, then the anterior lobes were divided into four portions, followed by further washing twice. […] The concentrations of […] and FSH in the supernatant were determined by using the radio immunoassay kit (Amersham Inc.).
By calculating in accordance with the formula; 100−(LH or FSH concentration in the presence of the compound)/(LH or FSH concentration of the control culture)×100, the inhibiting rate (%) of LH or FSH secretion by each compound was determined. […]

male SD rats = experiment: Suppression of testosterone concentration in rat plasma; type: in vivo; conditions: 30 mg per 1 kg once subcutaneously, plasma at 24 hours after administration, p<0.05
Procedure: The compound 15 produced in Working Example 9 was dissolved in vehicle I (20% propylene glycol-80% physiological saline). The solution was administered once subcutaneously to male SD rats (8-week old, n=5). […] Animals administered with the vehicle alone were used as control.

Structure (SMILES): CCC(=O)Nc1ccc(-c2sc3c(c2CN(C)Cc2ccccc2)c(=O)c(C(=O)c2ccccc2)cn3Cc2c(F)cccc2F)cc1 [Working Example 56, 5-Benzoyl-7-(2,6-difluorobenzyl)-4,7-dihydro-3-(N-methyl-N-benzylaminomethyl)-2-(4-propionylamidophenyl)-4-oxothieno[2,3-b]pyridine]
rate of testosterone suppression (%) (male ICR mice): 85±9.7%

Structure (SMILES): CCOC(=O)c1cn(Cc2ccccc2OC)c2sc(-c3ccc(OC)cc3)c(CN(C)Cc3ccccc3)c2c1=O [3-(N-benzyl-N-methylaminomethyl)-4,7-dihydro-7-(2-methoxybenzyl)-2-(4-methoxyphenyl)-4-oxothieno[2,3-b]pyridine-5-carboxylic acid ethyl ester]
inhibition at 20 µM (stock) ([1]; p<0.01, n=3, read-out: inhibiting rate (%) of FSH secretion): 20 ± 10% | inhibition at 20 µM (stock) ([1]; p<0.01, n=3, read-out: inhibiting rate (%) of LH secretion): 28 ± 9% | rate of testosterone suppression (%) (male SD rats): 38±9.7%

melting point: 147 to 152 °C
Structure (SMILES): CCOC(=O)c1cn(Cc2ccccc2OC)c2sc(-c3ccc(OC)cc3)c(CN(C)Cc3ccccc3)c2c1=O (as salt: hydrochloride) [3-(N-benzyl-N-methylaminomethyl)-4,7-dihydro-7-(2-methoxybenzyl)-2-(4-methoxyphenyl)-4-oxothieno[2,3-b]pyridine-5-carboxylic acid ethyl ester]
